Test results from ChEMBL document CHEMBL3585239, “Two diseases, one approach: multitarget drug discovery in Alzheimer's and neglected tropical diseases” (Medchemcomm, 2014).
The source made the active and inactive calls. The calls are words filed in the database; no cut-off is given here.

Key:
Acetylcholinesterase [1] = target: T1, Acetylcholinesterase (Homo sapiens, UniProt P22303); assay: Inhibition of human recombinant AChE using acetylthiocholine iodide as substrate after 20 mins by Ellmans method
Acetylcholinesterase [2] = target: T1, Acetylcholinesterase; assay: Inhibition of human recombinant AChE using acetylthiocholine iodide as substrate after 20 mins by Ellmans method relative to dimebon
[3] = target: T2, Amyloid-beta precursor protein (Homo sapiens, UniProt P05067); assay: Inhibition of self-mediated amyloid beta (1 to 42) aggregation (unknown origin) at 10 uM after 24 hrs by thioflavin T fluorometric assay
[4] = target: Glutamate NMDA receptor; GRIN1/GRIN2A (Homo sapiens, UniProt Q05586+Q12879); assay: Inhibition of NMDA receptor (unknown origin) at 100 mV; assay type: protein-complex assay
[5] = tested on: Trypanosoma brucei rhodesiense; assay: Antitrypanosomal activity against bloodstream forms of Trypanosoma brucei rhodesiense; assay type: functional; details: read-out: ED50 (the source's name)
[6] = Selectivity index, ratio of ED50 for mammalian cells to ED50 for Trypanosoma brucei rhodesiense; assay type: toxicity; details: read-out: Ratio ED50
[7] = Inhibition of parasite-specific trypanothione reductase
[8] = Inhibition of Trypanosoma brucei GAPDH
Trypanosoma brucei = assay: Antitrypanosomal activity against Trypanosoma brucei; assay type: functional, organism-based
L6 = assay: Cytotoxicity against rat L6 cells; assay type: cell-based
[9] = target: T2, Amyloid-beta precursor protein; assay: Inhibition of self-mediated amyloid beta (1 to 42) aggregation (unknown origin) after 24 hrs by thioflavin T fluorometric assay

Glutamate NMDA receptor; GRIN1/GRIN2A, sequence (Q12879 whole entry, other chains not shown): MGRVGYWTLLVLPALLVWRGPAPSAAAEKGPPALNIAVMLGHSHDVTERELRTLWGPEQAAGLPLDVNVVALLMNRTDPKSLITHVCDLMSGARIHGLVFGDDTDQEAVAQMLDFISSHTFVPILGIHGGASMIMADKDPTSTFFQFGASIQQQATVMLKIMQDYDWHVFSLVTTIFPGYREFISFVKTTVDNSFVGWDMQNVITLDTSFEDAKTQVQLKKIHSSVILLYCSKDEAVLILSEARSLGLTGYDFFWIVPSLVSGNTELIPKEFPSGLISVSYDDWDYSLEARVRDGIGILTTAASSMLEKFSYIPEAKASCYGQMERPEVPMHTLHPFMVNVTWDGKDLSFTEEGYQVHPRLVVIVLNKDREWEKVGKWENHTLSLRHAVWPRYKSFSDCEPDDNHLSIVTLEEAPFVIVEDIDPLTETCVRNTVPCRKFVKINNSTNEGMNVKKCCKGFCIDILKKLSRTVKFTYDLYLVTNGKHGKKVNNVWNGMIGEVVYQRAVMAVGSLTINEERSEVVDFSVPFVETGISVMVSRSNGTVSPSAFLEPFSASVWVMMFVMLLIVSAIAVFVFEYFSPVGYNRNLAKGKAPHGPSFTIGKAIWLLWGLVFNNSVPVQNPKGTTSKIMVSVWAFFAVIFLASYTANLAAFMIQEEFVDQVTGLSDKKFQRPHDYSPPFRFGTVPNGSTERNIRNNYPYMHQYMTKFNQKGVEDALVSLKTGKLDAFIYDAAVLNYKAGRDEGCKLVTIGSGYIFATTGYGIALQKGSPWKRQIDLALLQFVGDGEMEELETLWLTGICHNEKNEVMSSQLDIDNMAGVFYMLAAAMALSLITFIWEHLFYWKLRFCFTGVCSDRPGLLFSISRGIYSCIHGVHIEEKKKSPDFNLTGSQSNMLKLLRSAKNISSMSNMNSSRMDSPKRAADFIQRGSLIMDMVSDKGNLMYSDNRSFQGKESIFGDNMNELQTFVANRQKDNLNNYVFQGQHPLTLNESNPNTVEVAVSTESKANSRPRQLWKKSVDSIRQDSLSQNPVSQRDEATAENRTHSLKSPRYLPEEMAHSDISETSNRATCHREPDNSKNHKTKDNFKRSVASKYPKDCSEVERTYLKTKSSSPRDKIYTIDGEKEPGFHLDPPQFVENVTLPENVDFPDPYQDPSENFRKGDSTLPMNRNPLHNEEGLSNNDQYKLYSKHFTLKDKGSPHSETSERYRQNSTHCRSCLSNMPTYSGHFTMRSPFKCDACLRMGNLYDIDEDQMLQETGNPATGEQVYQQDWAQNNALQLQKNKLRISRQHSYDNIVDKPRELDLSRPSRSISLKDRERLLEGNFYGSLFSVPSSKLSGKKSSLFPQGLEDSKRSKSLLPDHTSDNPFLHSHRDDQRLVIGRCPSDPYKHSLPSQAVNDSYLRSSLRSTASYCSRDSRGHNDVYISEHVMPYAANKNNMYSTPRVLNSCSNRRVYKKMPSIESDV
T1 sequence (P22303 whole entry): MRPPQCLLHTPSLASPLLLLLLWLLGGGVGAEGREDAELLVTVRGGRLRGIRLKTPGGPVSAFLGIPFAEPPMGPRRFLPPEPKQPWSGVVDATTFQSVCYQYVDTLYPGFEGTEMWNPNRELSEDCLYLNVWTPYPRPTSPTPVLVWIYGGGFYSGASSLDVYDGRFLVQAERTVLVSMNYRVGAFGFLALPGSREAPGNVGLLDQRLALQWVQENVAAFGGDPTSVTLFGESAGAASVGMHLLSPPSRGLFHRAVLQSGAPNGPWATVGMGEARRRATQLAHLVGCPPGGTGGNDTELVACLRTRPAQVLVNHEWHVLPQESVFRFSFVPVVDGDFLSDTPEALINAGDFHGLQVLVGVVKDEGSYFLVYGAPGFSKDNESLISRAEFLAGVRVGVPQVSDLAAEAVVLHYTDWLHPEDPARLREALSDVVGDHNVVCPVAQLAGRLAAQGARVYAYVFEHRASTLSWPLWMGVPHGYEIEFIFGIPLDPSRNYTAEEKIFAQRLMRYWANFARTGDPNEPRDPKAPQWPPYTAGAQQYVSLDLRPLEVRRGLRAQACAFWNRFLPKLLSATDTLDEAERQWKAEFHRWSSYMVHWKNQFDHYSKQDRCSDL
T2 sequence (P05067 whole entry): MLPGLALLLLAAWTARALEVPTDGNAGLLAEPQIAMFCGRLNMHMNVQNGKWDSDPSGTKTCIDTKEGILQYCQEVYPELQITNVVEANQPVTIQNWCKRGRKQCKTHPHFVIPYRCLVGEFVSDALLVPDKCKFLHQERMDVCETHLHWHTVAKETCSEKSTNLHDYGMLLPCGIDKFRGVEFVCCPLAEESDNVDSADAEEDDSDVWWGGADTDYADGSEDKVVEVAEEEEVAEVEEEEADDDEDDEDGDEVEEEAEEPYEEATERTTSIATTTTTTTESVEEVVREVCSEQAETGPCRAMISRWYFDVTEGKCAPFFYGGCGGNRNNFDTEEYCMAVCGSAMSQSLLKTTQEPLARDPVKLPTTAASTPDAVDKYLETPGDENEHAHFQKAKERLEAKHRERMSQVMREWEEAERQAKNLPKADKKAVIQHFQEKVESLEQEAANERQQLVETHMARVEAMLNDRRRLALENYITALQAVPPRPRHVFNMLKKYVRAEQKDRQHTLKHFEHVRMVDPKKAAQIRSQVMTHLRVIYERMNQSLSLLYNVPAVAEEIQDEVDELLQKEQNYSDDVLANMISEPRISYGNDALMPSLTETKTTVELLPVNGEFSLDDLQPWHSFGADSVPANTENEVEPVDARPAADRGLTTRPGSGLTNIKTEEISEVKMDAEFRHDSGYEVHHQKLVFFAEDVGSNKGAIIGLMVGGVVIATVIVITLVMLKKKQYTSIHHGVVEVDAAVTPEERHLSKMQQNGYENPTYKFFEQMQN

Compound	IC50 (Acetylcholinesterase [1]) [nM]	inhibition [3]	IC50 [4] [nM]	other results
Cc1ccc2[nH]c3c(c2c1)CN(CCCCCCCN1CCc2[nH]c4ccc(C)cc4c2C1)CC3	690	35.2%	12600	fold change (FC) (Acetylcholinesterase [2]): 128
CCN(CCCCCCNC1=CC(=O)C(NCCCCCCN(CC)Cc2ccccc2OC)=CC1=O)Cc1ccccc1OC [MEMOQUIN]	15400			
O=C1C=C(Oc2ccccc2)C(=O)c2ccccc21				EC50 [5]: 80 nM; selectivity ratio [6]: 74
CN(C)CCOc1cc2ccc(OC3=CC(=O)c4cc5ccccc5cc4C3=O)cc2oc1=O				Ki [7]: 2700 nM; IC50 [8]: 5400 nM
Cc1ccc2[nH]c3c(c2c1)CN(CCCCCCN1CCc2[nH]c4ccc(C)cc4c2C1)CC3	190	35.6%	11000	fold change (FC) (Acetylcholinesterase [2]): 128
CN(C)CCCOc1ccc2oc(=O)c(-c3ccc(OC4=CC(=O)c5cc6ccccc6cc5C4=O)cc3)cc2c1				EC50 (Trypanosoma brucei): 26 nM; Activity (L6): 7.95 µM
Cc1ccc2c(c1)c1c(n2CCc2ccc(C)nc2)CCN(C)C1 [LATREPIRDINE]		inactive	13900	
O=C(Cc1ccccc1Nc1c(Cl)cccc1Cl)NCCCNCCCNC1=CC(=O)C(NCCCNCCCNC(=O)Cc2ccccc2Nc2c(Cl)cccc2Cl)=CC1=O	600			IC50 [9]: 3110 nM
